In patent US20230339886A1 (University of Florida Research Foundation, Incorporated, priority 2020, published 2023):

Target: T1, REV-ERBα LBD (human; residues 281-614 Δ324-422) (Homo sapiens, UniProt P20393, DEL324-422)
T1 construct: 6×Histag-REV-ERBα LBD (human; residues 281-614 Δ324-422); made in house; host or cells: Escherichia coli
Experiment: TR-FRET corepressor interaction assay (REV-ERBα LBD, FITC-SMRT peptide)
Format: biochemical
Conditions: Table 2, read-out: REVERBα agonism (EC50 class, FRET assay)
Summary of the method: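 Compound serial dilutions (in DMSO, triplicate) incubated 2 h at 4 °C; Tb donor excited at 340 nm, emission read at 495 nm and FITC acceptor at 520 nm. TR-FRET ratio (520/495 nm) plotted against ligand concentration and fitted to a sigmoidal dose-response curve.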

T1 sequence (P20393 with tags, fused parts or gaps DEL324-422): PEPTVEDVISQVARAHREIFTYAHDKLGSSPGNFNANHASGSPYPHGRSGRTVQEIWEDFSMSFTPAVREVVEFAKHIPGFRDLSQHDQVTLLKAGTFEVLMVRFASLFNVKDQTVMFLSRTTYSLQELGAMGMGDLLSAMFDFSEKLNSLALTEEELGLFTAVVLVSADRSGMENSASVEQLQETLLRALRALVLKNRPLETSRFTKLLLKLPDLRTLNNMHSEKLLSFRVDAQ
T1 sequence (Q9Y618 2335-2356 partner limits assumed): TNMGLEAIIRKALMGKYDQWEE

Row | EC50 | SMILES
1 | > 3 µM | Cc1cc(-c2ccncc2)cc2c1c(CCNS(=O)(=O)N(C)C)cn2CC(C)C [Example 202, dimethyl({2-[4-methyl-1-(2-methylpropyl)-6-(pyridin-4-yl)-1H-indol-3-yl]ethyl}sulfamoyl)amine]
2 | < 0.5 µM | CC(C)Cn1cc(C(C)NS(=O)(=O)C2CC2)c2ccc(-c3ccccc3C(F)(F)F)cc21 (stereo not drawn) [Example 204, N-(1-(1-isobutyl-6-(2-(trifluoromethyl)phenyl)-1H-indol-3-yl)ethyl)cyclopropanesulfonamide]
3 | > 3 µM | CC(C)Cn1cc(C2(NS(=O)(=O)N(C)C)CC2)c2ccc(-c3ccncc3)cc21 [Example 207, dimethyl({1-[1-(2-methylpropyl)-6-(pyridin-4-yl)-1H-indol-3-yl]cyclopropyl}sulfamoyl)amine]
4 | < 0.5 µM | CC(C)Cn1cc(C(NS(=O)(=O)C2CC2)C(F)(F)F)c2ccc(-c3ccccc3C(F)(F)F)cc21 (stereo not drawn) [Example 208]
5 | < 0.5 µM | CC(C)(C)Cc1cn(CCNS(=O)(=O)C2CC2)c2ccc(-c3cccc4ccccc34)cc12 [Example 209, N-(2-(5-(naphthalen-1-yl)-3-neopentyl-1H-indol-1-yl)ethyl)cyclopropane-sulfonamide]
6 | 0.5 to 3 µM | CC(C)(C)Cc1cn(CCNS(=O)(=O)C2CC2)c2ccc(-c3ccc4ccccc4c3)cc12 [Example 210, N-(2-(5-(naphthalen-2-yl)-3-neopentyl-1H-indol-1-yl)ethyl)cyclopropane-sulfonamide]
7 | 0.5 to 3 µM | CC(C)(C)Cc1cn(CCNS(=O)(=O)C2CC2)c2ccc(-c3ccc4cc(O)ccc4c3)cc12 [Example 211, N-(2-(5-(6-hydroxynaphthalen-2-yl)-3-neopentyl-1H-indol-1-yl)ethyl)cyclopropane sulfonamide]
8 | < 0.5 µM | CC(C)(C)Cc1cn(CCNS(=O)(=O)C2CC2)c2ccc(-c3ccccc3Cl)cc12 [Example 213, N-(2-(5-(2-chlorophenyl)-3-neopentyl-1H-indol-1-yl)ethyl)cyclopropanesulfonamide]
9 | > 3 µM | CC(C)(C)Cc1cn(CCNS(=O)(=O)C2CC2)c2ccc(-c3nccc4ccccc34)cc12 [Example 215, N-(2-(5-(isoquinolin-1-yl)-3-neopentyl-1H-indol-1-yl)ethyl)cyclopropane-sulfonamide]
10 | 0.5 to 3 µM | CC(C)(C)Cc1cn(CCNS(=O)(=O)C2CC2)c2ccc(-c3cccc4ccncc34)cc12 [Example 217, N-(2-(5-(isoquinolin-8-yl)-3-neopentyl-1H-indol-1-yl)ethyl)cyclopropane-sulfonamide]
11 | 0.5 to 3 µM | CC(C)(C)Cc1cn(CCNS(=O)(=O)C2CC2)c2ccc(-c3cncc4ccccc34)cc12 [Example 218, N-(2-(5-(isoquinolin-4-yl)-3-neopentyl-1H-indol-1-yl)ethyl)cyclopropane-sulfonamide]
12 | < 0.5 µM | CC(C)(C)Cc1cn(CCNS(=O)(=O)C2CC2)c2ccc(-c3ccc(F)c4ccccc34)cc12 [Example 219, N-(2-(5-(4-fluoronaphthalen-1-yl)-3-neopentyl-1H-indol-1-yl)ethyl)cyclopropanesulfonamide]
13 | 0.5 to 3 µM | CC(C)Cn1cc([C@@H](NS(=O)(=O)C2CC2)C(F)(F)F)c2ccc(-c3ccccc3C(F)(F)F)cc21 [Example 222, (R)—N-(2,2,2-trifluoro-1-(1-isobutyl-6-(2-(trifluoromethyl)phenyl)-1H-indol-3-yl)ethyl)cyclopropanesulfonamide]
14 | < 0.5 µM | CC(C)Cn1cc(C(NS(=O)(=O)N(C)C)C(F)(F)F)c2ccc(-c3ccccc3C(F)(F)F)cc21 (stereo not drawn) [Example 223, dimethyl({2,2,2-trifluoro-1-[1-(2-methylpropyl)-6-[2-(trifluoromethyl)phenyl]-1H-indol-3-yl]ethyl}sulfamoyl)amine]
15 | 0.5 to 3 µM | CC(C)Cn1cc(C(NS(=O)(=O)C(C)C)C(F)(F)F)c2ccc(-c3ccccc3C(F)(F)F)cc21 (stereo not drawn) [Example 224, N-(2,2,2-trifluoro-1-(1-isobutyl-6-(2-(trifluoromethyl)phenyl)-1H-indol-3-yl)ethyl)propane-2-sulfonamide]
